Starred links: 1 amine or outer side, 2 acyl side, 3 side chain; linkers in the order of their positions; H or OH if unused. Positions of bridges follow the written chain, without caps; N, C: chain ends. Non-standard residues stand in square brackets, D forms with d. Residues, ends and D or L forms follow the SMILES beside them. X2 = N=C(N)NCCC[C@@H](C(=O)[C@H](CCC(N)=O)N[*:1])C(=O)[*:2]; X3 = O=C(NC(=O)[*:2])[C@H](CO)N[*:1]
Key:
[1] = Inhibition of trypsin by substrate hydrolysis based fluorescence assay
[2] = Inhibition of tryptase by substrate hydrolysis based fluorescence assay
Neutrophil elastase = target: T1, Neutrophil elastase (Homo sapiens, UniProt P08246); experiment: Inhibition of human leukocyte elastase by substrate hydrolysis based fluorescence assay
T1 sequence (P08246 whole entry): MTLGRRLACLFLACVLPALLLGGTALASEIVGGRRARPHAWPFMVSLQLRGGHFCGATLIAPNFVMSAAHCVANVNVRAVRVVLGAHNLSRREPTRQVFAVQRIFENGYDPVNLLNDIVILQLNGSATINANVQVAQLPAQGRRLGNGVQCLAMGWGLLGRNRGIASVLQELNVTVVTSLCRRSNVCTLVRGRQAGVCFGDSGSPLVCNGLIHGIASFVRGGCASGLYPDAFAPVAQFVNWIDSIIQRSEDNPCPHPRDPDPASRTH

Row | SMILES | Ki [1] [nM] | Ki [2] [nM] | Ki (Neutrophil elastase) | Ki (Neutrophil elastase; read-out: Ki) [nM]
1 | CC[C@H](C)[C@@H]1NC(=O)[C@H](C)NC(=O)[C@@H]2CCCN2C(=O)[C@@H]2CSSC[C@@H]3NC(=O)[C@H](C)NC(=O)CNC(=O)[C@@H]4CCCN4C(=O)[C@@H]4CSSC[C@H](NC(=O)[C@H](Cc5ccc(O)cc5)NC(=O)CNC(=O)[C@H](CC(N)=O)NC(=O)CNC(=O)[C@H](CCCNC(=N)N)NC(=O)[C@H](CSSC[C@H](NC(=O)[C@@H](CCCNC(=N)N)C(=O)[C@H](CCC(N)=O)NC(=O)[C@H](CC(C)C)NC1=O)C(=O)N[C@@H](CCCNC(=N)N)C(=O)N[C@@H](CCCNC(=N)N)C(=O)N[C@@H](CC(=O)O)C(=O)N[C@@H](CO)C(=O)N[C@@H](CC(=O)O)C(=O)N4)NC(=O)[C@H]([C@@H](C)CC)NC3=O)C(=O)NCC(=O)N[C@@H](CO)C(=O)NCC(=O)N[C@@H](CO)C(=O)N[C@@H](CC(=O)O)C(=O)NCC(=O)NCC(=O)N[C@@H](C(C)C)C(=O)N2 (cyclo(ACICRGNGYCGSGSDGGVCPAIL[X2]CRRDSDCPG); disulfide 2-19, 4-25, 10-31) | > 0.109 | > 50000 |  | 32
2 | CC[C@H](C)[C@@H]1NC(=O)[C@@H]2CSSC[C@@H]3NC(=O)[C@H](C(C)C)NC(=O)CNC(=O)CNC(=O)[C@H](CC(=O)O)NC(=O)[C@H](CO)NC(=O)CNC(=O)[C@H](CO)NC(=O)CNC(=O)[C@@H]4CSSC[C@H](NC(=O)[C@H](CC(=O)O)NC(=O)[C@H](CO)NC(=O)[C@H](CC(=O)O)NC(=O)[C@H](CCCNC(=N)N)NC(=O)[C@H](CCCNC(=N)N)NC(=O)[C@H](CSSC[C@H](NC1=O)C(=O)N[C@@H](CCCNC(=N)N)C(=O)NCC(=O)N[C@@H](CC(N)=O)C(=O)NCC(=O)N[C@@H](Cc1ccc(O)cc1)C(=O)N4)NC(=O)[C@@H](CCCNC(=N)N)C(=O)[C@H](CCC(N)=O)NC(=O)[C@H](CC(C)C)NC(=O)[C@H]([C@@H](C)CC)NC(=O)[C@H](C(C)C)NC(=O)[C@@H]1CCCN1C3=O)C(=O)N1CCC[C@H]1C(=O)NCC(=O)N[C@@H](C)C(=O)N2 (cyclo(ACICRGNGYCGSGSDGGVCPVIL[X2]CRRDSDCPG); disulfide 2-19, 4-25, 10-31) | > 0.109 | > 50000 |  | 21
3 | CC[C@H](C)[C@@H]1NC(=O)[C@@H]2CSSC[C@@H]3NC(=O)[C@H](C(C)C)NC(=O)CNC(=O)CNC(=O)[C@H](CC(=O)O)NC(=O)[C@H](CO)NC(=O)CNC(=O)[C@H](CO)NC(=O)CNC(=O)[C@@H]4CSSC[C@H](NC(=O)[C@H](CC(=O)O)NC(=O)[C@H](CO)NC(=O)[C@H](CC(=O)O)NC(=O)[C@H](CCCNC(=N)N)NC(=O)[C@H](CCCNC(=N)N)NC(=O)[C@H](CSSC[C@H](NC1=O)C(=O)N[C@@H](CCCNC(=N)N)C(=O)NCC(=O)N[C@@H](CC(N)=O)C(=O)NCC(=O)N[C@@H](Cc1ccc(O)cc1)C(=O)N4)NC(=O)[C@@H](CCCNC(=N)N)C(=O)[C@H](CCC(N)=O)NC(=O)[C@H](CC(C)C)NC(=O)[C@@H]1CCCN1C(=O)[C@@H](C(C)C)NC(=O)[C@H](C)NC3=O)C(=O)N1CCC[C@H]1C(=O)NCC(=O)N[C@@H](C)C(=O)N2 |  | > 50000 |  | 500
4 | CC[C@H](C)[C@@H]1NC(=O)[C@@H]2CSSC[C@@H]3NC(=O)[C@H](C(C)C)NC(=O)CNC(=O)CNC(=O)[C@H](CC(=O)O)NC(=O)[C@H](CO)NC(=O)CNC(=O)[C@H](CO)NC(=O)CNC(=O)[C@@H]4CSSC[C@H](NC(=O)[C@H](CC(=O)O)NC(=O)[C@H](CO)NC(=O)[C@H](CC(=O)O)NC(=O)[C@H](CCCNC(=N)N)NC(=O)[C@H](CCCNC(=N)N)NC(=O)[C@H](CSSC[C@H](NC1=O)C(=O)N[C@@H](CCCNC(=N)N)C(=O)NCC(=O)N[C@@H](CC(N)=O)C(=O)NCC(=O)N[C@@H](Cc1ccc(O)cc1)C(=O)N4)NC(=O)[C@@H](CCCNC(=N)N)C(=O)[C@H](CCC(N)=O)NC(=O)[C@H](CC(C)C)NC(=O)[C@@H]1CCCN1C(=O)[C@H](C(C)C)NC(=O)[C@@H]1CCCN1C3=O)C(=O)N1CCC[C@H]1C(=O)NCC(=O)N[C@@H](C)C(=O)N2 (cyclo(ACICRGNGYCGSGSDGGVCPVPL[X2]CRRDSDCPG); disulfide 2-19, 4-25, 10-31) |  | > 50000 |  | 520

Now those with a lower Ki [2], led by results:

Row | Ki [1] [nM] | Ki [2] [nM] | Ki (Neutrophil elastase) | Ki (Neutrophil elastase; read-out: Ki) [nM] | SMILES
5 | 0.029 | 1600 | Not Active |  | CC[C@H](C)[C@@H]1NC(=O)[C@@H]2CSSC[C@@H]3NC(=O)[C@H](C(C)C)NC(=O)CNC(=O)CNC(=O)[C@H](CC(=O)O)NC(=O)[C@H](CO)NC(=O)CNC(=O)[C@H](CO)NC(=O)CNC(=O)[C@@H]4CSSC[C@H](NC(=O)[C@H](CC(=O)O)NC(=O)[C@H](CO)NC(=O)[C@H](CC(=O)O)NC(=O)[C@H](CCCNC(=N)N)NC(=O)[C@H](CCCNC(=N)N)NC(=O)[C@H](CSSC[C@H](NC1=O)C(=O)N[C@@H](CCCNC(=N)N)C(=O)NCC(=O)N[C@@H](CC(N)=O)C(=O)NCC(=O)N[C@@H](Cc1ccc(O)cc1)C(=O)N4)NC(=O)[C@@H](CCCNC(=N)N)C(=O)[C@H](CCC(N)=O)NC(=O)[C@H](CC(C)C)NC(=O)[C@H]([C@@H](C)CC)NC(=O)[C@H](CCCCN)NC(=O)[C@@H]1CCCN1C3=O)C(=O)N1CCC[C@H]1C(=O)NCC(=O)N[C@@H](C)C(=O)N2 (cyclo(ACICRGNGYCGSGSDGGVCPKIL[X2]CRRDSDCPG); disulfide 2-19, 4-25, 10-31)
6 | 4.3 | 600 |  |  | CC[C@H](C)[C@@H]1NC(=O)[C@@H]2CSSC[C@@H]3NC(=O)[C@H](C(C)C)NC(=O)CNC(=O)NC(=O)[C@H](CO)NC(=O)CNC(=O)[C@H](CO)NC(=O)CNC(=O)[C@@H]4CSSC[C@H](NC(=O)[C@H](CC(=O)O)NC(=O)[C@H](CO)NC(=O)[C@H](CC(=O)O)NC(=O)[C@H](CCCNC(=N)N)NC(=O)[C@H](CCCNC(=N)N)NC(=O)[C@H](CSSC[C@H](NC1=O)C(=O)N[C@@H](CCCNC(=N)N)C(=O)NCC(=O)N[C@@H](CC(N)=O)C(=O)NCC(=O)N[C@@H](Cc1ccc(O)cc1)C(=O)N4)NC(=O)[C@@H](CCCNC(=N)N)C(=O)[C@H](CCC(N)=O)NC(=O)[C@H](CC(C)C)NC(=O)[C@H]([C@@H](C)CC)NC(=O)[C@H](CCCCN)NC(=O)[C@@H]1CCCN1C3=O)C(=O)N1CCC[C@H]1C(=O)NCC(=O)N[C@@H](C)C(=O)N2 (cyclo(ACICRGNGYCGSG[X3]GVCPKIL[X2]CRRDSDCPG); disulfide 2-17, 4-23, 10-29)
7 | 8.8 | 28 |  |  | CC[C@H](C)[C@@H]1NC(=O)[C@H](CCCNC(=N)N)NC(=O)[C@@H]2CCCN2C(=O)[C@@H]2CSSC[C@@H]3NC(=O)CNC(=O)[C@H](C)NC(=O)[C@H](CC(C)C)NC(=O)[C@@H]4CSSC[C@H](NC(=O)[C@H](Cc5ccc(O)cc5)NC(=O)CNC(=O)[C@H](CC(N)=O)NC(=O)CNC(=O)[C@H](CCCNC(=N)N)NC(=O)[C@H](CSSC[C@H](NC(=O)[C@@H](CCCNC(=N)N)C(=O)[C@H](CCC(N)=O)NC(=O)[C@H](CC(C)C)NC1=O)C(=O)N[C@@H](CCCNC(=N)N)C(=O)N[C@@H](CCCNC(=N)N)C(=O)N[C@@H](CC(=O)O)C(=O)N[C@@H](CO)C(=O)N[C@@H](CC(=O)O)C(=O)N4)NC(=O)[C@H](CC(C)C)NC3=O)C(=O)NCC(=O)N[C@@H](CO)C(=O)NCC(=O)N[C@@H](C(C)C)C(=O)N2 (cyclo(AGCLCRGNGYCGSGVCPRIL[X2]CRRDSDCL); disulfide 3-16, 5-22, 11-28)
8 | 48 | 33 |  |  | CC[C@H](C)[C@@H]1NC(=O)[C@H](CCCCN)NC(=O)[C@@H]2CCCN2C(=O)[C@@H]2CSSC[C@@H]3NC(=O)CNC(=O)[C@H](C)NC(=O)[C@H](CC(C)C)NC(=O)[C@@H]4CSSC[C@H](NC(=O)[C@H](Cc5ccc(O)cc5)NC(=O)CNC(=O)[C@H](CC(N)=O)NC(=O)CNC(=O)[C@H](CCCNC(=N)N)NC(=O)[C@H](CSSC[C@H](NC(=O)[C@@H](CCCNC(=N)N)C(=O)[C@H](CCC(N)=O)NC(=O)[C@H](CC(C)C)NC1=O)C(=O)N[C@@H](CCCNC(=N)N)C(=O)N[C@@H](CCCNC(=N)N)C(=O)N[C@@H](CC(=O)O)C(=O)N[C@@H](CO)C(=O)N[C@@H](CC(=O)O)C(=O)N4)NC(=O)[C@H](CC(C)C)NC3=O)C(=O)NCC(=O)N[C@@H](CO)C(=O)NCC(=O)N[C@@H](C(C)C)C(=O)N2 (cyclo(AGCLCRGNGYCGSGVCPKIL[X2]CRRDSDCL); disulfide 3-16, 5-22, 11-28)
9 | 99 | 110 |  |  | CC[C@H](C)[C@@H]1NC(=O)[C@H](CCCCN)NC(=O)[C@@H]2CCCN2C(=O)[C@@H](NC(=O)[C@@H](N)C(C)C)CSSC[C@@H]2NC(=O)CNC(=O)[C@H](C)NC(=O)[C@H](CC(C)C)NC(=O)[C@@H]3CSSC[C@@H](C(=O)NCC(=O)N[C@@H](CO)C(=O)NCC(=O)O)NC(=O)[C@H](Cc4ccc(O)cc4)NC(=O)CNC(=O)[C@H](CC(N)=O)NC(=O)CNC(=O)[C@H](CCCNC(=N)N)NC(=O)[C@H](CSSC[C@H](NC(=O)[C@@H](CCCNC(=N)N)C(=O)[C@H](CCC(N)=O)NC(=O)[C@H](CC(C)C)NC1=O)C(=O)N[C@@H](CCCNC(=N)N)C(=O)N[C@@H](CCCNC(=N)N)C(=O)N[C@@H](CC(=O)O)C(=O)N[C@@H](CO)C(=O)N[C@@H](CC(=O)O)C(=O)N3)NC(=O)[C@H](CC(C)C)NC2=O (H-VCPKIL[X2]CRRDSDCLAGCLCRGNGYCGSG-OH; disulfide 2-18, 8-20, 14-26)
